Source: patent publication US20020138123A1, “Medical electrical leads and indwelling catheters with enhanced biocompatibility and biostability” (Medtronic, Inc., priority 1998, published 2002)

Assays:
Type in all cases: cell-based
[1] = tested on: human Mo/MØs; experiment: Morphology of Mo/MØ monolayers on polyetherurethane cultured with DSP (OM, SEM); conditions: human Mo/MØs on PEU cultured with DSP in media, versus standard media
Experimental: Blood was anticoagulated with 2 units/ml sodium heparin (Upjohn Co., Kalamazoo, Mich.). Mononuclear cells (lymphocytes, monocytes) were isolated within 15 minutes by a one-step density gradient centrifugation procedure using Isopaque-1077 (a density gradient solution) according to a modified Boyum's method (Boyum et al., Blood Separation and Plasma Fractionation, 217-239, Wiley-Liss, Inc. (1991)). The mononuclear cells were harvested and washed twice with cold Hanks balanced salt solution (HBSS) without Ca^2+ and Mg^2+ to minimize cell aggregation. The cells were then resuspended in standard media (RPMI-1640, 10% Fetal bovine serum, 0.2M L-glutamine, 10 Ul/ml Penicillin-G, and 0.1 mg/ml Streptomycin). The cell suspension was seeded into several plastic tissue culture flasks and incubated in the presence of 5% CO2 at 37° C. for 1 hour (Ackerman et al., J. Immunol., 20, 1372-1374 (1978)). After this incubation, adherent (monocytes) were gently scrapped from the surface and resuspended in standard media. Nonadherent cells (lymphocytes) contained in the supernatant were recovered into sterile tubes, and the remaining nonadherent cells washed off with cold HBSS. […] The polymer surfaces were also evaluated using SEM following the 10-day treatment with FeCl2. […]

[2] = tested on: IL-1α; experiment: Cytokine analysis, in vitro expression of IL-1α; conditions: human primary monocytes; DEX 2.5, 0.25, 0.025 μg/ml; methotrexate 50, 5, 0.5 μg/ml; dose- and incubation time-dependent
Experimental: (§1) In order to assess the in vitro expression of IL-1α and IL-8, human primary monocytes were incubated with various concentrations of DEX (2.5, 0.25, and 0.025 μg/ml) and methotrexate (50, 5, and 0.5 μg/ml).

[3] = tested on: IL-8; experiment: Cytokine analysis, in vitro expression of IL-8; conditions: human primary monocytes; DEX 2.5, 0.25, 0.025 μg/ml; methotrexate 50, 5, 0.5 μg/ml; dose- and incubation time-dependent
Experimental: as §1

Row | Compound | cell size of Mo/MØ monolayers (OM) [1] | IL-1 inhibition [2] | IL-8 inhibition [3]
1 | C[C@@H]1C[C@H]2[C@@H]3CCC4=CC(=O)C=C[C@]4(C)[C@@]3(F)[C@@H](O)C[C@]2(C)[C@@]1(O)C(=O)COP(=O)(O)O [DSP, dexamethasone sodium phosphate] | no increase in cell size |  | 
2 | CN(Cc1cnc2nc(N)nc(N)c2n1)c1ccc(C(=O)N[C@@H](CCC(=O)O)C(=O)O)cc1 [methotrexate] |  | higher rate of IL-1 and IL-8 inhibition | higher rate of IL-1 and IL-8 inhibition
